Assay results published in publication PMC10330721, “Chemo-enzymatic synthesis and biological activity evaluation of propenylbenzene derivatives” (Frontiers in Microbiology, 2023).
Values after ≈ are worked out from the molar mass of the structure shown. Like-named read-outs stand apart in the source and are kept apart here.

Key:
C. albicans ATTC 90028 = assay: Fungistatic activity assay, broth microdilution; assay type: cell-based; conditions: Candida albicans, ATTC90028, 24 h
Method: (§1) Fungistatic activity was determined using Candida albicans ATCC 90028 from the American Type Culture Collection (ATCC, Manassas, VA, United States), and clinical isolates, C. albicans 636/20, C. albicans 595/20, and C. albicans 38 obtained from Wrocław Medical University, Wrocław, Poland.
(§2) All compounds were tested for biological activity against C. albicans ATTC 90028, C. albicans 636/20, C. albicans 595/20, and C. albicans 38 using the broth microdilution method. YPD medium (20 g glucose, 20 g Bacto Peptone, 10 g yeast extract, and 1 L of distilled water, pH 6.5) was used for the tests. The compound solutions were prepared in DMSO and diluted in YPD to obtain final concentrations in the range of 10–250 μg/mL. One hundred microlitres of each solution was pipetted into the wells of a 96-well microtiter plate. The inoculum was standardized to 0.5 McFarland standard and then diluted to obtain a final suspension with a cell density of 0.5–2.5 × 10^3 CFU/mL. The inoculum size was 100 μL. The positive control comprised DMSO added in the same concentration as the tested compounds in the inoculum, whereas the negative control consisted of DMSO diluted in the broth without the addition of inoculum. The microtiter plates were incubated in a Biosan PST-60 HL Plate Shaker-Thermostat (Riga, Latvia) at 35°C under shaking at 1,000 rpm for 24 h.

C. albicans 38 = assay: Fungistatic activity assay, broth microdilution; assay type: cell-based, Candida albicans
Method: as §1, §2

[1] = Haemolytic activity assay; assay type: cell-based; conditions: human red blood cells (RBCs) from healthy donors, 37°C, read-out: Percentage of haemolysis
Method: This test is based on comparison of the cytotoxicity of all tested compounds in human red blood cells (RBCs) with that in a control group. RBCs for this method were obtained from a blood center from examined and healthy donors. The compounds were tested at 10, 20, 40, 60, 80, and 100 μM concentrations. The control sample contained only ethanol in the same volume as the test samples. […] The samples were incubated at 37°C for 1 h. Then, the absorbance at 540 nm was measured using a UV–Vis spectrophotometer (Specord 40, Analytik Jena, Jena, Germany). The haemolytic activity of the compounds was determined as the ratio of the absorbance of haemoglobin in the test samples to that in completely haemolyzed cells multiplied by 100%.

RBCs membrane = assay: Fluorescence spectroscopy of the RBCs membrane (DPH probe anisotropy); assay type: cell-based, human; conditions: for Change in DPH anisotropy / RBCs membrane fluidity (in words): RBCs, 20, 60 and 100 μM; for Fluorescence anisotropy of the DPH probe: membranes of RBCs, 37 °C
Method: Using the DPH probe, the anisotropy values of cell membranes of RBCs modified with the test compounds were measured. RBCs for this analysis were prepared according to the method described in subsection 2.5.3. Then, the DPH probe was added to RBCs with a haematocrit of 0.2%. The final concentration of the probe in the sample was 1.3 μM. The mixture was incubated protected from light at 37°C for 30 min. Then, the compounds dissolved in ethanol were added. The compounds were tested at 20, 60, and 100 μM concentrations. Samples with compounds and control samples with alcohol of the appropriate concentration were incubated at 37°C for 1 h. Measurements in triplicate were made in quartz cuvettes using a CARY Eclipse fluorimeter (Varian, San Diego, CA, United States) at 37°C. The excitation wavelength for the DPH probe is λexc = 360 nm and the emission wavelength is λem = 426 nm.

MG63 cells = assay: Resazurin-based viability assay; assay type: cell-based, human; conditions: for Effect on MG63 proliferation / viability (in words): 24 h, 1, 50 and 200 μg/mL
Method: (§3) HepG2 cells were cultured in Dulbecco’s modified Eagle’s Medium - low glucose (Merck) supplemented with 10% foetal bovine serum (FBS) (Merck). Caco-2 cells were cultured in Dulbecco’s modified Eagle’s medium - high glucose (Merck) supplemented with 10% FBS, 2% HEPES buffer (Thermo Fisher Scientific, Warszawa, Poland), 1% Penicillin–Streptomycin-Amphotericin B Solution (100×, Merck), 1% MEM solution (100×, Thermo Fisher Scientific), and 1% Gentamycin Solution (10 mg/mL, Merck). MG-63 cells were cultured in Minimum Essential Medium (Merck) supplemented with 10% FBS. All cells were cultured in an atmosphere of 5% CO2 at 37°C.
The tested compounds were dissolved in ethanol at 10 mg/mL. The concentrations were then adjusted to 1, 50, and 200 μg/mL in culture medium. Four controls were prepared: no ethanol added, and 0.01, 0.5, and 2% EtOH. The cells were treated with the compounds for 24 h. […] The culture medium was replaced with medium containing 10% resazurin dye. The cells were incubated at 37°C in an atmosphere of 5% CO2 for 2 h. Absorbance levels were measured spectrophotometrically (Epoch) at a wavelengths of 600 nm for resazurin and 690 nm as a reference.

Caco-2 cells = assay: Resazurin-based viability assay; assay type: cell-based, human; conditions: 24 h, 50 μg/mL
Method: as §3, with “The human HepG2 and Caco-2 cell lines were obtained from the American Type Culture Collection (HB-8065™ and HTB-37™) and the MG-63 cell line was obtained from the European Collection of Authenticated Cell Cultures (Merck, Poznań, Poland). HepG2” for “HepG2”
(§4) HepG2, Caco-2, and […] were seeded in 96-well plates at 20,000 cells per well, and MG-63 cells at 10,000 cells per well, as described previously ([Marycz et al., 2012]; [Kornicka et al., 2017]). The tested compounds were dissolved in ethanol at 10 mg/mL. The concentrations were then adjusted to 1, 50, and 200 μg/mL in culture medium. Four controls were prepared: no ethanol added, and 0.01, 0.5, and 2% EtOH. The cells were treated with the compounds for 24 h. Then, cell viability was evaluated using the resazurin-based assay kit (TOX8), as described previously ([Grzesiak et al., 2011]; [Marycz et al., 2018]). The culture medium was replaced with medium containing 10% resazurin dye. The cells were incubated at 37°C in an atmosphere of 5% CO2 for 2 h. Absorbance levels were measured spectrophotometrically (Epoch) at a wavelengths of 600 nm for resazurin and 690 nm as a reference.

HepG2 cells = assay: Resazurin-based viability assay; assay type: cell-based, human; conditions: for Effect on HepG2 proliferation / viability (in words): 24 h, 1, 50 and 200 μg/mL
Method: as §3, with “The human HepG2 and Caco-2 cell lines were obtained from the American Type Culture Collection (HB-8065™ and HTB-37™) and the MG-63 cell line was obtained from the European Collection of Authenticated Cell Cultures (Merck, Poznań, Poland). HepG2” for “HepG2”
as §4

C. albicans strains = assay: Fungistatic activity assay, broth microdilution, values given over several strains; assay type: cell-based, Candida albicans
Method: as §1, §2

C. albicans ATTC18804 = tested on: C. albicans ATTC18804; design: method as in Kubo et al., 1993; conditions: C. albicans ATTC18804 ref Kubo et al., 1993; cited from earlier work
[2] = cited from earlier work
C. albicans 595/20 = assay: Fungistatic activity assay, broth microdilution; assay type: cell-based; conditions: Candida albicans, 595/20, 24 h
Method: as §1, §2

[3] = tested on: human colon carcinoma Caco-2 cell line; conditions: ref Lea et al., 2016; Padhy et al., 2022; cited from earlier work
[4] = Free-radical scavenging assay (DPPH test); assay type: biochemical; conditions: DPPH 190 μM in methanol, 1 h, 25°C, absorbance 517 nm
Method: The antiradical activity of all compounds was tested using the 2,2-diphenyl-1-picrylhydrazyl (DPPH) test according to a previously described method ([Herald et al., 2012]; [Dudek et al., 2022]). One litre of a fresh solution of 190 μM DPPH in pure methanol was prepared in a dark glass bottle. The solution was kept protected from light and used within a week. The tested compounds and ascorbic acid as a positive control were prepared at concentrations in the range of 5–100 μg/mL. Two hundred microlitres of the test compound dilutions was added to each well of a 96-well microtiter plate. Then, […] of a 190 μM solution of DPPH in methanol was added. DPPH was also added to the negative control, in which 200 μL of methanol was added instead of the test compounds. All samples were tested at least in triplicate. The microtiter plates were incubated in the Biosan PST-60 HL thermoshaker at 25°C under shaking at 1,000 rpm for 1 h. […] EC50 values were calculated using Quest Graph™ EC50 Calculator (AAT Bioquest, Inc.).

[5] = tested on: human hepatocellular carcinoma HepG2 cells; design: method as in Yoo et al., 2005; Song et al., 2014, 2020; conditions: ref Yoo et al., 2005; Song et al., 2014, 2020; cited from earlier work

| Compound | hemolysis at 1 h, 10 µM [1] [%] | hemolysis at 1 h, 20 µM [1] [%] | hemolysis at 1 h, 40 µM [1] [%] | hemolysis at 1 h, 60 µM [1] [%] | hemolysis at 1 h, 80 µM [1] [%] | hemolysis at 1 h, 100 µM [1] [%] | Fluorescence anisotropy of the DPH probe (RBCs membrane; 20 µM) | Fluorescence anisotropy of the DPH probe (RBCs membrane; 60 µM) | Fluorescence anisotropy of the DPH probe (RBCs membrane; 100 µM) | Effect on MG63 proliferation / viability (in words) (MG63 cells) | further results |
| --- | --- | --- | --- | --- | --- | --- | --- | --- | --- | --- | --- |
| CC(O)C(=O)c1ccccc1 (centres unmarked) [2c, 2-hydroxy-1-phenylpropan-1-one] | 1.16 ± 0.027 | 1.86 ± 0.697 | 1.42 ± 0.55 | 1.74 ± 0.59 | 1.94 ± 0.154 | 2.46 ± 0.322 | 0.236 ± 0.026 | 0.240 ± 0.019 | 0.238 ± 0.002 | promoted MGC63 proliferation | MIC50 (C. albicans ATTC 90028): > 250 µg/mL; MIC50 (C. albicans 38; Candida albicans, 38, 24 h): > 250 µg/mL; Change in DPH anisotropy / RBCs membrane fluidity (in words) (RBCs membrane): a decrease in anisotropy |
| COc1ccc(C(=O)C(C)O)cc1 (centres unmarked) [3c, 2-hydroxy-1-(4-methoxyphenyl)propan-1-one] | 1.83 ± 0.355 | 1.65 ± 0.509 | 1.73 ± 0.174 | 2.33 ± 0.436 | 2.15 ± 0.161 | 1.53 ± 0.134 | 0.239 ± 0.006 | 0.249 ± 0.007 | 0.244 ± 0.003 | promoted MGC63 proliferation | MIC50 (C. albicans 38; Candida albicans, C. albicans 38, 24 h, 35°C, tested 10–250 μg/mL, read-out: MIC50): 61 µg/mL (≈ 339 µM); Change in DPH anisotropy / RBCs membrane fluidity (in words) (RBCs membrane): a decrease in anisotropy; Effect on Caco-2 proliferative activity (in words) (Caco-2 cells): induced the proliferative activity; Effect on HepG2 proliferative activity (in words) (HepG2 cells; 24 h, 50 μg/mL): induced the proliferative activity; Effect on MG63 proliferative activity / viability (in words) (MG63 cells; 24 h, 50 μg/mL): induced the proliferative activity |
| CC=Cc1ccccc1 [2a, prop-1-en-1-yl benzene] | – | – | – | – | – | – | 0.262 ± 0.020 | 0.268 ± 0.023 | 0.267± 0.006 | promoted MGC63 proliferation | MIC50 (C. albicans ATTC 90028): > 250 µg/mL; MIC50 (C. albicans 38; Candida albicans, 38, 24 h): > 250 µg/mL; Effect on HepG2 proliferation / viability (in words) (HepG2 cells): more strongly significantly suppressed the viability |
| isoeugenol [5a] | – | – | – | – | – | – | 0.259 ± 0.009 | 0.272 ± 0.085 | 0.256 ± 0.023 | promoted MGC63 proliferation | MIC50 (over all tested strains) (C. albicans strains; C. albicans 636/20, 595/20, 38 and ATTC90028): 52 to 88 µg/mL; MIC (C. albicans ATTC18804): 400 µg/mL; antioxidant activity ([2]; ref Siva et al. (2019)): 86% |
| C/C=C/c1ccc2c(c1)OCO2 [1a, isosafrole] | 2.41 ± 0.481 | 1.54 ± 0.202 | 2.18 ± 0.153 | 2.4 ± 0.446 | 2.585 ± 0.014 | 2.55 ± 0.007 | 0.262 ± 0.016 | 0.264 ± 0.030 | 0.237 ± 0.041 | promoted MGC63 proliferation | MIC50 (C. albicans 595/20): 65 µg/mL (≈ 401 µM); MIC50 (C. albicans strains; Candida albicans, read-out: MIC50 (over all tested strains)): < 100 µg/mL; Effect on HepG2 proliferation / viability (in words) (HepG2 cells): more strongly significantly suppressed the viability; MIC (C. albicans ATTC18804): 100 µg/mL (≈ 617 µM); Apoptosis in Caco-2 cell line (in words) [3]: induced apoptosis |
| O=C1O[C@H]([C@@H](O)CO)C(O)=C1O [ascorbic acid, reference compound] | – | – | – | – | – | – | – | – | – | – | EC50 antiradical activity [4]: 15.21 µg/mL (≈ 86.4 µM) |
| C=CCc1ccc2c(c1)OCO2 [safrole] | – | – | – | – | – | – | – | – | – | – | IC50 antioxidant activity ([2]; ref Eid and Hawash (2021)): 50.28 µg/mL (≈ 310 µM); Effect on growth of HepG2 cells (in words) [5]: inhibited the growth |
| C=CCc1ccc(O)c(OC)c1 [eugenol] | – | – | – | – | – | – | – | – | – | – | Effect on growth of HepG2 cells (in words) [5]: inhibited the growth; Apoptosis in Caco-2 cell line (in words) [3]: induced apoptosis |
